Source: ChEMBL document CHEMBL4138121, “Selective photocytotoxicity of anthrols on cancer stem-like cells: The effect of quinone methides or reactive oxygen species” (Eur J Med Chem, 2017)
Calls of active or inactive are those of the source. The rule behind the calls is not given here.

Legend:
[1] = Drug uptake in cytoplasm of HMLE-shGFP cells at 5 uM irradiated at 420 nm for 5 mins measured after 2 to 3 hrs by confocal microscopic method; type: ADME, subcellular; conditions: human
[2] = test system: SUM-159-PT; assay: Photocytotoxicity against human SUM159 cells assessed as growth inhibition irradiated at 420 nm at 4, 24, 48 hrs post compound addition for 5 mins measured after 72 hrs by MTT assay; type: functional, cell-based; conditions: light or radiation study
[3] = Dark toxicity against HMLE-shGFP cells after 72 hrs by MTT assay; type: cell-based; conditions: human
[4] = Drug uptake in nucleus of HMLE-shGFP cells at 5 uM irradiated at 420 nm for 5 mins measured after 2 to 3 hrs by confocal microscopic method; type: ADME, subcellular; conditions: human
[5] = Decrease in reactive oxygen species generation in HMLE-shEcad cells at 1 uM in absence of irradiation measured after 2 hrs by H2DCF-DA dye-based FACS analysis; type: ADME, cell-based; conditions: human
[6] = test system: HCT-116; assay: Photocytotoxicity against human HCT116 cells assessed as growth inhibition irradiated at 350 nm at 4, 24, 48 hrs post compound addition for 5 mins measured after 72 hrs by MTT assay; type: functional, cell-based; conditions: HCT-116, light or radiation study
[7] = test system: HMLE; assay: Cytotoxicity against HMLE-shEcad cells at 10 uM irradiated at 420 nm at 4 hrs post compound addition for 5 mins measured after 48 hrs by propidium iodide staining-based flow cytometric method; type: functional, cell-based; conditions: Homo sapiens
[8] = Drug uptake in plasma membranes of HMLE-shGFP cells at 5 uM irradiated at 420 nm for 5 mins measured after 2 to 3 hrs by confocal microscopic method; type: ADME, cell membranes, Plasma membrane; conditions: human
[9] = Drug uptake in nucleus of HMLE-shEcad cells at 10 uM in absence of irradiation measured after 2 to 3 hrs by confocal microscopic method; type: ADME, subcellular; conditions: human
[10] = Dark toxicity against human H460 cells after 72 hrs by MTT assay; type: cell-based, NCI-H460
[11] = test system: MCF7; assay: Cell cycle arrest in human MCF7 cells in presence of irradiation; type: functional, cell-based
[12] = Dark toxicity against human HCT116 cells after 72 hrs by MTT assay; type: cell-based, HCT-116
[13] = test system: MCF7; assay: Photocytotoxicity against human MCF7 cells assessed as growth inhibition irradiated at 420 nm at 4, 24, 48 hrs post compound addition for 5 mins measured after 72 hrs by MTT assay; type: functional, cell-based; conditions: MCF7, light or radiation study
[14] = Photocytotoxicity against HMLE-shGFP cells assessed as growth inhibition irradiated at 420 nm at 4, 24, 48 hrs post compound addition for 5 mins measured after 72 hrs by MTT assay; type: cell-based; conditions: Homo sapiens, light or radiation study
[15] = test system: MCF7; assay: Photocytotoxicity against human MCF7 cells assessed as growth inhibition irradiated at 350 nm at 4, 24, 48 hrs post compound addition for 5 mins measured after 72 hrs by MTT assay; type: functional, cell-based; conditions: MCF7, light or radiation study
[16] = Cell cycle arrest in HMLE-shGFP cells assessed as accumulation at S phase at 1 to 10 uM irradiated at 420 nm at 4 hrs post compound addition for 5 mins measured after 24 to 48 hrs by propidium iodide staining-based flow cytometric method; conditions: human
[17] = Cytotoxicity against HMLE-shGFP cells at 10 uM irradiated at 420 nm at 4 hrs post compound addition for 5 mins measured after 48 hrs by propidium iodide staining-based flow cytometric method; type: cell-based; conditions: human
[18] = Dark toxicity against human MCF7 cells after 72 hrs by MTT assay; type: cell-based
[19] = test system: HMLE; assay: Cell cycle arrest in HMLE-shEcad cells assessed as accumulation at S phase at 1 to 10 uM irradiated at 420 nm at 4 hrs post compound addition for 5 mins measured after 24 to 48 hrs by propidium iodide staining-based flow cytometric method; type: functional; conditions: Homo sapiens
[20] = Drug uptake in intracellular membranes of HMLE-shGFP cells at 5 uM irradiated at 420 nm for 5 mins measured after 2 to 3 hrs by confocal microscopic method; type: ADME, cell membranes, Intracellular membrane; conditions: human
[21] = test system: HMLE; assay: Cell cycle arrest in HMLE-shEcad cells assessed as accumulation at G2/M phase at 1 to 10 uM irradiated at 420 nm at 4 hrs post compound addition for 5 mins measured after 24 to 48 hrs by propidium iodide staining-based flow cytometric method; type: functional; conditions: Homo sapiens
[22] = Drug uptake in cytoplasm of HMLE-shEcad cells at 10 uM in absence of irradiation measured after 2 to 3 hrs by confocal microscopic method; type: ADME, subcellular; conditions: human
[23] = Cell cycle arrest in HMLE-shEcad cells assessed as delay in G1/S phase at 1 to 10 uM after 24 to 48 hrs in absence of irradiation by propidium iodide staining-based flow cytometric method; conditions: human
[24] = Induction of cell damage in HMLE-shGFP cells assessed as cell swelling at 5 uM irradiated at 420 nm for 5 mins measured after 2 to 3 hrs by confocal microscopic method; type: cell-based; conditions: human
[25] = Dark toxicity against human SUM159 cells after 72 hrs by MTT assay; type: cell-based, SUM-159-PT
[26] = Photocytotoxicity against HMLE-shEcad cells assessed as growth inhibition irradiated at 420 nm at 4, 24, 48 hrs post compound addition for 5 mins measured after 72 hrs by MTT assay; type: functional, cell-based; conditions: Homo sapiens, light or radiation study
[27] = test system: MCF7; assay: Induction of reactive oxygen species generation in human MCF7 cells at 1 to 10 uM irradiated at 420 nm for 5 mins measured after 2 hrs by H2DCF-DA dye-based FACS analysis; type: functional, cell-based
[28] = test system: SUM-159-PT; assay: Induction of reactive oxygen species generation in human SUM159 cells at 1 to 10 uM irradiated at 420 nm for 5 mins measured after 2 hrs by H2DCF-DA dye-based FACS analysis; type: functional, cell-based
[29] = test system: SUM-159-PT; assay: Cell cycle arrest in human SUM159 cells in presence of irradiation; type: functional, cell-based
[30] = Dark toxicity against HMLE-shEcad cells after 72 hrs by MTT assay; type: cell-based; conditions: human
[31] = Photocytotoxicity against HMLE-shEcad cells assessed as growth inhibition irradiated at 350 nm at 4, 24, 48 hrs post compound addition for 5 mins measured after 72 hrs by MTT assay; type: functional, cell-based; conditions: Homo sapiens, light or radiation study
[32] = Induction of reactive oxygen species generation in HMLE-shGFP cells at 1 to 10 uM irradiated at 420 nm for 5 mins measured after 2 hrs by H2DCF-DA dye-based FACS analysis relative to non-irradiated cells; type: cell-based; conditions: human
[33] = test system: HCT-116; assay: Photocytotoxicity against human HCT116 cells assessed as growth inhibition irradiated at 420 nm at 4, 24, 48 hrs post compound addition for 5 mins measured after 72 hrs by MTT assay; type: functional, cell-based; conditions: HCT-116, light or radiation study
[34] = Cell cycle arrest in HMLE-shGFP cells assessed as accumulation at G2/M phase at 1 to 10 uM irradiated at 420 nm at 4 hrs post compound addition for 5 mins measured after 24 to 48 hrs by propidium iodide staining-based flow cytometric method; conditions: human
[35] = test system: NCI-H460; assay: Photocytotoxicity against human H460 cells assessed as growth inhibition irradiated at 350 nm at 4, 24, 48 hrs post compound addition for 5 mins measured after 72 hrs by MTT assay; type: functional, cell-based; conditions: NCI-H460, light or radiation study
[36] = Photocytotoxicity against HMLE-shGFP cells assessed as growth inhibition irradiated at 350 nm at 4, 24, 48 hrs post compound addition for 5 mins measured after 72 hrs by MTT assay; type: cell-based; conditions: Homo sapiens, light or radiation study
[37] = Induction of cell damage in HMLE-shGFP cells assessed as degradation of internal structure at 5 uM irradiated at 420 nm for 5 mins measured after 2 to 3 hrs by confocal microscopic method; type: cell-based; conditions: human
[38] = test system: NCI-H460; assay: Photocytotoxicity against human H460 cells assessed as growth inhibition irradiated at 420 nm at 4, 24, 48 hrs post compound addition for 5 mins measured after 72 hrs by MTT assay; type: functional, cell-based; conditions: NCI-H460, light or radiation study
[39] = Induction of cell damage in HMLE-shGFP cells assessed as membrane blebbing at 5 uM irradiated at 420 nm for 5 mins measured after 2 to 3 hrs by confocal microscopic method; type: cell-based; conditions: human
[40] = test system: HMLE; assay: Anticlonogenic activity against HMLE-shEcad cells at 0.5 to 1 uM irradiated at 350 nm at 4 hrs post compound addition for 5 mins for 5 mins measured after 24 hrs by crystal violet staining-based assay; type: functional, cell-based; conditions: Homo sapiens

- Drug uptake [1]: Active
- Drug uptake [4]: Not Active
- Drug uptake [8]: Active
- Drug uptake [9]: Not Active
- Drug uptake [20]: Active
- Drug uptake [22]: Active
- fold change (FC) [32]: 2
SMILES: Oc1ccc2cc3ccccc3cc2c1
- IC50 [2]: 2000 nM
- IC50 at 72 h [3]: 27000 nM
- Activity [5]: Toxic
- IC50 [6]: 9000 nM
- Activity [7]: Active
- IC50 at 72 h [10]: 23000 nM
- Activity [11]: inactive
- IC50 at 72 h [12]: 27000 nM
- IC50 [13]: 1000 nM
- IC50 [14]: 2000 nM
- IC50 [15]: 2000 nM
- Activity [16]: Toxic
- Activity [17]: Toxic
- IC50 at 72 h [18]: 28000 nM
- Activity [19]: Active
- Activity [21]: Active
- Activity [23]: Toxic
- Activity [24]: Toxic
- IC50 at 72 h [25]: 18000 nM
- IC50 [26]: 1000 nM
- Activity [27]: Active
- Activity [28]: Active
- Activity [29]: inactive
- IC50 at 72 h [30]: 25000 nM
- IC50 [31]: 2000 nM
- IC50 [33]: 2000 nM
- Activity [34]: Toxic
- IC50 [35]: 12000 nM
- IC50 [36]: 2000 nM
- Activity [37]: Toxic
- IC50 [38]: 2000 nM
- Activity [39]: Toxic
- Activity [40]: Active
